Patent publication US20130165520A1, “Hybrid Molecule Having Mixed Retinoic Acid Receptor Agonism and Histone Deacetylase Inhibitory Properties” (priority 2010, published 2013)
One block for each compound: values may come before it.

Key:
Assay type in all cases: cell-based
[1] = system: RAR target genes in MCF-7 cell line; assay: RT-qPCR analysis of RAR target genes
From the text: (§1) The agonist activity of 3 through its effects on RAR target genes was subsequently analyzed (FIG. 3).

RARα = molecular target: T1, RARα (Homo sapiens, UniProt P10276); assay: BRET assay of agonist-dependent coactivator recruitment in transfected HEK293 cells; settings: 1 μM, 2 hours treatment
T1 sequence (P10276 1-462): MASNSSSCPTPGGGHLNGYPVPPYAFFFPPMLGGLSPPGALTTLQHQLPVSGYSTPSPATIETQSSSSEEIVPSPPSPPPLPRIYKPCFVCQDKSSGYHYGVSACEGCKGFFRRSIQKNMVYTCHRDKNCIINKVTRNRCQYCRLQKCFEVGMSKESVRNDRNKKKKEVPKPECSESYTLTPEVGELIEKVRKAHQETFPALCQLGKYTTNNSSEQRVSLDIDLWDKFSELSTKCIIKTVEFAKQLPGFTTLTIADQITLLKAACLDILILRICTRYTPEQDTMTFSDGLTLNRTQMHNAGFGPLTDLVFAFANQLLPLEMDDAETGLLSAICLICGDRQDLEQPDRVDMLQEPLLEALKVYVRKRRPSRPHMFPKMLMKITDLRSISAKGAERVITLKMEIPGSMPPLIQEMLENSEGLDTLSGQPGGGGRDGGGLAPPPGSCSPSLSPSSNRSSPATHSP
Procedure: Hybrid 3 was prepared by treatment of the methyl ester of TTNN with excess hydroxylamine under alkaline conditions. The effects of hybrid 3 on RAR were initially assessed using a bioluminescence resonance energy transfer (BRET) assay. The BRET assay monitors agonist-dependent recruitment of coactivators to RARs in transfected HEK293 cells, chosen because of their high degree of transfectability. Energy transfer between luciferase (fused to RARα) and eGFP (fused to the LXXLL coactivator motif) occurs only when these moieties are juxtaposed by the RAR-LXXLL interaction, and can be detected by the emission of green fluorescence.
Cell transfection and BRET assays: HEK293 cells were grown to confluence, trypsinized and plated at a density of 500 k cells per well (12-well plates) in DMEM supplemented with 10% charcoal treated FBS (FBS-T). The following day, cells were transfected with PEI using 0.1 μg of RAR-RLuc vector and 1 μg of LXXLL-eGFP vector. 48 hours post-transfection, cells were treated with retinoids for 2 hours before taking BRET measurements as described previously.

MDA-MB-231 = assay: Cell growth measurement; settings: 10 days of treatment
Procedure: (§2) Finally, the effects of 3 on the growth of several breast cancer cell lines [MCF-7 (ER-positive, HER2-negative, RA-sensitive); SkBr3 (ER-negative, HER2-amplified, RA-sensitive); and the normally RA-insensitive MDA-MB-231 (ER-negative, HER2-negative, RA-insensitive)] was assessed.
(§3) Cell Growth Measurement: Cells were plated at 40 k cells per well (6-well plate) in DMEM 5% FBS-T for all cell lines except for I-IMEC cells which were plated in supplemented MEBM from Clonetics. Cells were treated every 48 hours and media was refreshed every 96 hours. After 10 days of treatment cells were harvested in 0.1N NaOH and growth was quantified by analyzing protein content of lysates with a Lowry assay.

[2] = system: RAR target genes in MDA-MB-231 cell line; assay: RT-qPCR analysis of RAR and HDACi target genes; settings: MDA-MB-231 cell line
From the text: as §1

MCF-7 = assay: Cell growth measurement; settings: 10 days of treatment
Procedure: as §2, §3

SkBr3 = assay: Cell growth measurement; settings: 10 days of treatment
Procedure: as §2, §3

[3] = system: normal human mammary epithelial cells (HMEC); assay: Cell growth measurement

RARα agonism (BRET signal) (RARα): agonists of RARα
Structure (SMILES): CC1=C(/C=C/C(C)=C/C=C/C(C)=C/C(=O)O)C(C)(C)CCC1 [ATRA, all-trans-retinoic acid]
induction of RAR target genes (RT-qPCR) [1]: no induction of either RARB1 or RARB2
effect on cell growth (MDA-MB-231): little to no effect
induction of RAR target genes (RT-qPCR) [2]: only induce RARB2

RARα agonism (BRET signal) (RARα): no increase in BRET signal
Structure (SMILES): CN1c2ccccc2N=C(c2ccc(C(=O)O)cc2)c2cc3c(cc21)C(C)(C)CCC3(C)C [HX600]

Structure (SMILES): O=C(CCCCCCC(=O)Nc1ccccc1)NO [SAHA, reference compound]
effect on cell growth (MDA-MB-231): modest decrease in cell growth
effect on cell growth (MCF-7): shallow activity
effect on cell growth (SkBr3): shallow activity
effect on growth of normal cells [3]: strong inhibition

Structure (SMILES): CC1(C)CCC(C)(C)c2cc(-c3ccc4cc(C(=O)O)ccc4c3)ccc21 [TTNN, 6-(5,6,7,8-tetrahydro-5,5,8,8-tetramethyl-2-naphthalenyl)-2-naphthalene carboxylic acid, reference compound]
induction of RAR target genes (RT-qPCR) [1]: no induction of either RARB1 or RARB2
RARα agonism (BRET signal) (RARα): agonists of RARα
effect on cell growth (MDA-MB-231): little to no effect
effect on cell growth (MCF-7): inactive
effect on cell growth (SkBr3): inactive
induction of RAR target genes (RT-qPCR) [2]: only induce RARB2
